Results reported in patent publication US11058700B2, “Macrocyclic lactones and uses thereof as modulators of purinergic receptors” (City of Hope, priority 2015, dated 2021).

Legend:
4T1.2 cancer cells = assay: Synergy between Ivermectin and ROS (CompuSyn CI); assay type: cell-based, mouse; details: for CompuSyn CI values: 4T1.2, 24 h/48 h
Procedure: FIGS. 2A-2C. Role of NADPH oxidases-generated ROS. […] 4T1.2 cells were labeled with a ROS detection probe and treated for 1 h with 32 μM Ivermectin in the presence of 1 mM EDTA, 5mM NAC, 5 μM DPI, 2500 μunits/ml Apyrase, 3 mM ATP, and 10 μM KN-62. […] Triangles (▴) indicate significant antagonism CI>1.0. […] 4T1.2 cancer cells were irradiated (10-20 kRad) or treated with H2O2 (10-1000 μM), PTX (0.1-1 μM), or DOX (1-4 μM) and incubated with Ivermectin for 24 h/48 h. Circles (●) indicate significant synergy CI<1.0, see Table 1. Asterisk (*) indicates p<0.05 relative to untreated or Ivermectin alone controls, respectively.
Cell viability. Cancer cells were plated on 96 well flat-bottom plates and allowed to attach overnight. Cells were then pre-incubated with drugs for 1 h and treated with Ivermectin for 4 h. In the case of 24 h and 48 h incubations the cells, Ivermectin and drugs were plated together. […] Following treatment the plates were washed once with PBS and cell viability was measured using the acid phosphatase assay. Briefly, cells were incubated for 1h at 37° C. in 100 μL assay buffer (0.16 M sodium acetate, 0.1% Triton-X-100, supplemented with 4-Nitrophenyl phosphate disodium salt hexahydrate, Sigma Aldrich, at 0.00263 g/ml). Reaction was stopped using 10 μL of 1N sodium hydroxide. Absorption at 405 nm was measured within 10 min using a multi-well plate reader. Mode of cell death and viability of cells in suspension was evaluated using flow cytometry. Briefly, cancer cells were pre-incubated with drugs for 30 min to 1 h, as indicated, treated with Ivermectin for 4 h in 5 ml FACS tubes , washed twice in PBS and stained with PE-conjugated Annexin V and 7AAD (1 μl per 100 μl/200,000 cancer cells) for 15 min.

[1] = tested on: Calreticulin (CRT) and Mannose-6 Phosphate receptor; assay: Surface exposure of CRT and Mannose-6 Phosphate receptor; assay type: cell-based, mouse, human
Procedure: FIGS. 6A-6E. Ivermectin induces autophagy. FIG. 6A: Ivermectin induces autophagy in breast cancer cells. MDA-MB-231 GFL-LC3 cells were treated with different doses of Ivermectin for 24 h and formation of green fluorescent puncta was evaluated by confocal fluorescence microscopy. FIG. 6B: Western blot confirming the induction of autophagy in both murine and human breast cancer cells, as evidenced by LC3 lipidation and autophagic degradation of p62(SQSTM1). […] MDA-MB-231 cells (triplicates) were treated with different doses of Ivermectin for up to 24h and surface stained with antibody-specific for the human M6P receptor versus isotype control. Similarly, 4T1.2 and MB231 cells were treated with different doses of Ivermectin for 4-24 h, and were stained with an antibody specific for both human and mouse CRT versus isotype control. Mean fluorescent intensity (MFI) values and ratios versus isotype control were calculated after gating on live/membrane-intact cells. […]
Surface exposure of CRT and Mannose-6 Phosphate receptor. Surface exposure of Calreticulin (CRT) and Mannose-6 Phosphate receptor (CD220) was evaluated by staining with monoclonal antibodies specific for CRT (unconjugated, specific for both mouse and human, Abcam ab22683, and PE-conjugated, specific for human only, Abcam, ab83220) and CD220 (Thermo […]

4T1.2 cells = assay: Mitochondrial membrane potential (JC-1); assay type: cell-based, mouse
Procedure: FIGS. 4A-4D. Excessive Ca^2+/CaMKII signaling and MPTP contribute to cell death. FIG. 4A: Kinetics of cytosolic Ca^2+ increase in 4T1.2 cells treated with Ivermectin. […] 4T1.2 cells were treated for 4 h with 32 μM Ivermectin in the presence of the P2X7/CaMKII dual inhibitor KN-62 or the CaMKII-specific inhibitor KN-63, at μM concentrations as indicated. FIG. 4C: Flow cytometry analysis of JC-1 loaded 4T1.2 cells showing that high doses of Ivermectin result in a sudden mitochondrial de-polarization, while lower doses cause similar effects but after transient hyper-polarization. FIG. 4D: MPTP contributes to Ivermectin. 4T1.2 cells were treated for 4 h with 32 μM Ivermectin in the presence of the MPTP inhibitor Cyclosporin A at μM concentrations as indicated. Asterisk (*) indicates p<0.05 relative to untreated or Ivermectin alone controls, respectively.
Mitochondrial membrane potential. Cancer cells in suspension were washed with PBS and loaded with 2 μM JC-1 (Life Technologies, T3168) for 15 min at room temperature in the dark. Cells were washed twice with PBS and treated with various doses of Ivermectin in R10 medium. Cells were incubated for 1 h/4 h in 5 ml FACS tubes at 37° C. and 5% CO2. After 1h/4h of treatment cells were analyzed by flow cytometry. Mitochondrial polarization was evaluated by measuring the corresponding changes in fluorescence in the FITC and PE channels. […]

CC[C@H](C)[C@H]1O[C@]2(CC[C@@H]1C)C[C@@H]1C[C@@H](C/C=C(\C)[C@@H](O[C@H]3C[C@H](OC)[C@@H](O[C@H]4C[C@H](OC)[C@@H](O)[C@H](C)O4)[C@H](C)O3)[C@@H](C)/C=C/C=C3\CO[C@@H]4[C@H](O)C(C)=C[C@@H](C(=O)O1)[C@]34O)O2 [Ivermectin]
synergy with irradiation, H2O2-generated ROS, doxorubicin and paclitaxel (4T1.2 cancer cells; 4T1.2 cells): synergistic | CompuSyn CI values (4T1.2 cancer cells; kRad 15 + Ivermectin 4): .16 | CompuSyn CI values (4T1.2 cancer cells; kRad 15 + Ivermectin 8): .75 | CompuSyn CI values (4T1.2 cancer cells; kRad 20 + Ivermectin 4): .94 | CompuSyn CI values (4T1.2 cancer cells; kRad 20 + Ivermectin 8): .63 | surface exposure of Calreticulin (CRT) ([1]; 4T1.2 and MB231 cells, 4-24 h): does not significantly impact surface CRT | plasma membrane exposure of M6P receptors ([1]; MDA-MB-231 cells, up to 24 h): up-regulate plasma membrane exposure of mannose-6-phosphate (M6P) receptors | mitochondrial polarization (4T1.2 cells; high doses of Ivermectin, massive cell death): sudden depolarization of mitochondria | mitochondrial polarization (4T1.2 cells; lower doses of Ivermectin): mitochondrial hyperpolarization
